Data reported in PubChem BioAssay AID330 (DTP/NCI, 2004).
Values joined by “and” are separate entries in the source; they are usually repeats but may differ in a detail not shown here. Equal values may be shown once. Toxic doses and inconclusive results are not listed. How the source made its calls: active means survival T/C of 150% or more; inactive means T/C below 125% in these data.

Tested on: P388 leukemia ip, CD2F1 mice, survival T/C
Assay: NCI In Vivo Anticancer Drug Screen. Data for tumor model P388 Leukemia (intraperitoneal) in CD2F1 (CDF1) mice
Details: endpoint: median survival time, higher = longer survival
Method in brief: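 Mice carrying the transplanted tumor received test compound or vehicle. Survival was recorded in each group, and the value is the treated-group measurement divided by that of the vehicle-treated control group.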

[1] = dose: 50.0 mg/kg/injection, schedule: Q01DX009 (ip), vehicle: saline
[2] = dose: 100.0 mg/kg/injection, schedule: Q01DX009 (ip), vehicle: saline
[3] = dose: 200.0 mg/kg/injection, schedule: Q01DX009 (ip), vehicle: saline
[4] = dose: 12.5 mg/kg/injection, schedule: Q01DX005 (ip), vehicle: saline

Measured: T/C

C[S+](C)CCO
inactive: [1] 100 % of control | [2] 102 % of control | [3] 98 % of control | dose: 400.0 mg/kg/injection, schedule: Q01DX009 (ip), vehicle: saline 95 % of control

COC(=O)c1cc(C)cc(O)c1C
inactive: dose: 50.0 mg/kg/injection, schedule: Q01DX009 (ip), vehicle: saline with Tween-80 102 % of control | dose: 100.0 mg/kg/injection, schedule: Q01DX009 (ip), vehicle: saline with Tween-80 101 % of control | dose: 200.0 mg/kg/injection, schedule: Q01DX009 (ip), vehicle: saline with Tween-80 99 % of control | dose: 400.0 mg/kg/injection, schedule: Q01DX009 (ip), vehicle: saline with Tween-80 101 % of control

C=CCCCCCCCCC(=O)N1C(=O)C(c2ccccc2)(c2ccccc2)CSC1=S
inactive: dose: 50.0 mg/kg/injection, schedule: Q01DX009 (ip), vehicle: Klucel (hydroxypropylcellulose) (HPC) 91 % of control | dose: 100.0 mg/kg/injection, schedule: Q01DX009 (ip), vehicle: Klucel (hydroxypropylcellulose) (HPC) 92 % of control | dose: 200.0 mg/kg/injection, schedule: Q01DX009 (ip), vehicle: Klucel (hydroxypropylcellulose) (HPC) 90 % of control

[Cl][Mn][Cl].[NH-]NP(=S)(N[NH-])Oc1ccccc1.[NH-]NP(=S)(N[NH-])Oc1ccccc1
inactive: [4] 99 % of control | dose: 25.0 mg/kg/injection, schedule: Q01DX005 (ip), vehicle: saline 100 % of control | dose: 50.0 mg/kg/injection, schedule: Q01DX005 (ip), vehicle: saline 108 % of control

Cc1cc(C)c(F)[c]([Hg][Br])c1N
inactive: dose: 0.78 mg/kg/injection, schedule: Q01DX005 (ip), vehicle: Klucel (hydroxypropylcellulose) (HPC) 89 % of control | dose: 1.56 mg/kg/injection, schedule: Q01DX005 (ip), vehicle: Klucel (hydroxypropylcellulose) (HPC) 92 % of control | dose: 6.25 mg/kg/injection, schedule: Q01DX005 (ip), vehicle: Klucel (hydroxypropylcellulose) (HPC) 90 % of control and 92 % of control

CC(C)(C)COC(=O)NC1CCC2CCCCC2C1 (configuration not stated)
inactive: [1] 88 % of control | [2] 97 % of control | [3] 101 % of control

Cc1nc(N)[nH]c(=O)c1-c1ccc(Cl)cc1
inactive: dose: 100.0 mg/kg/injection, schedule: Q04DX003 (ip), vehicle: Klucel (hydroxypropylcellulose) (HPC) 106 % of control | dose: 200.0 mg/kg/injection, schedule: Q04DX003 (ip), vehicle: Klucel (hydroxypropylcellulose) (HPC) 105 % of control | dose: 400.0 mg/kg/injection, schedule: Q04DX003 (ip), vehicle: Klucel (hydroxypropylcellulose) (HPC) 99 % of control

CN=NNc1ccc(C)cc1
inactive: dose: 12.5 mg/kg/injection, schedule: Q01DX009 (ip), vehicle: distilled water + Tween-80 96 % of control and 97 % of control | dose: 25.0 mg/kg/injection, schedule: Q01DX009 (ip), vehicle: distilled water + Tween-80 100 % of control | dose: 50.0 mg/kg/injection, schedule: Q01DX009 (ip), vehicle: distilled water + Tween-80 100 % of control and 124 % of control | dose: 100.0 mg/kg/injection, schedule: Q01DX009 (ip), vehicle: distilled water + Tween-80 123 % of control

COc1ccc(C(C)c2cc3c(cc2OCCOC(C)=O)OCO3)cc1 (configuration not stated)
inactive: dose: 100.0 mg/kg/injection, schedule: Q04DX002 (ip), vehicle: saline with Tween-80 103 % of control | dose: 200.0 mg/kg/injection, schedule: Q04DX002 (ip), vehicle: saline with Tween-80 100 % of control | dose: 400.0 mg/kg/injection, schedule: Q04DX002 (ip), vehicle: saline with Tween-80 100 % of control

CC(C)(C)[NH2+][B-](F)(F)F
inactive: dose: 6.25 mg/kg/injection, schedule: Q01DX005 (ip), vehicle: saline 94 % of control | [4] 103 % of control

NS(=O)(=O)c1ccc(N=Cc2c3ccccc3nc3cc(Cl)ccc23)cc1
inactive: dose: 50.0 mg/kg/injection, schedule: Q01DX005 (ip), vehicle: saline with Tween-80 91 % of control | dose: 100.0 mg/kg/injection, schedule: Q01DX005 (ip), vehicle: saline with Tween-80 88 % of control | dose: 200.0 mg/kg/injection, schedule: Q01DX005 (ip), vehicle: saline with Tween-80 88 % of control

C=CC(C)(C)C12Oc3c(ccc(OC)c3OC)C1=COc1cc(O)ccc12 (configuration not stated)
inactive: dose: 100.0 mg/kg/injection, schedule: Q01DX001 (ip), vehicle: Klucel (hydroxypropylcellulose) (HPC) 101 % of control | dose: 200.0 mg/kg/injection, schedule: Q01DX001 (ip), vehicle: Klucel (hydroxypropylcellulose) (HPC) 105 % of control | dose: 400.0 mg/kg/injection, schedule: Q01DX001 (ip), vehicle: Klucel (hydroxypropylcellulose) (HPC) 97 % of control

C=CC(=O)NCCCCC(N)C(=O)O (configuration not stated)
inactive: [1] 100 % of control | [2] 100 % of control | [3] 97 % of control

COc1cc2c(cc1C(CC(C)O)c1cc(OC)c(OC)c(OC)c1)OCO2 (configuration not stated)
inactive: dose: 60.0 mg/kg/injection, schedule: Q01DX005 (ip), vehicle: saline with Tween-80 100 % of control | dose: 120.0 mg/kg/injection, schedule: Q01DX005 (ip), vehicle: saline with Tween-80 90 % of control | dose: 240.0 mg/kg/injection, schedule: Q01DX005 (ip), vehicle: saline with Tween-80 98 % of control

O=C(CC1=NC2NN(c3ccccc3)C(=O)C2=C1CC(=O)c1ccccc1)c1ccccc1 (configuration not stated)
inactive: dose: 60.0 mg/kg/injection, schedule: Q01DX005 (ip), vehicle: saline 100 % of control | dose: 120.0 mg/kg/injection, schedule: Q01DX005 (ip), vehicle: saline 107 % of control | dose: 240.0 mg/kg/injection, schedule: Q01DX005 (ip), vehicle: saline 110 % of control
